Data: patent publication US20060211651A1, “Persulfated oligosaccharide acting on selectins and chemokine” (Taisho Pharmaceutical Co., Ltd., priority 2002, published 2006)

How the values were obtained:
[1] = test system: secondary lymphoid tissue chemokine; test: BIAcore surface plasmon resonance, immobilized glycosaminoglycan vs SLC; assay type: binding
Description: (§1) Affinity kinetics of the interaction between various CS/DS chains and each of L-selectin, P-selectin, CD44 and chemokine were examined by surface plasmon resonance using BIAcore™ biosensor [manufactured by BIAcore AB].
(§2) All experiments were performed at 25° C. At stages of washing and dissociation, buffer C (20 mM HEPES-NaOH, 0.15M NaCl, 1 mM CaCl2, 1 mM MgCl2, pH6.8) was used as a running buffer.
(§3) First, about 1.8 to 2.0 kiloresonance unit (1 kiloresonance unit=1 ng/mm^2) of streptavidin were covalently immobilized onto B1 sensor chip via a primary amine group using an amine coupling kit [manufactured by Amercham-Bioscience] according to the instruction provided by the manufacturer. The remaining activated groups were blocked with 150 μl of 1M ethanolamine-HCl (pH8.5). Then, each glycosaminoglycan which had been biotinylated at a reducing end was injected to a sensor tip surface by using EZ-link™ biotin-LC-hydrazide [manufactured by Pierce] so as to obtain about 150 resonance unit of an immobilization level, according to the method of Sadir et al. [J. Biol. Chem., 276, 8288-8296 (2001); all teachings of which are hereby incorporated by reference].
(§4) Binding assay was performed by injecting continuously each of various concentrations of secondary lymphoid tissue chemokine, γ-interferon inducible protein-10, stromal cell-derived factor-1β, monomeric L-selectin [manufactured by Genzyme-Techne], monomeric P-selectin [manufactured by Genzyme-Techne] and monomeric CD44, to a glycosaminoglycan-coupled sensor tip at a flow rate of 30 μl/min for 0 to 90 seconds, and then injecting a running buffer thereto. A response in resonance unit was recorded as a function of a time.
(§5) A sensor tip surface was regenerated with 300 μl of 1 M NaCl when chemokine or CD44 was used, or regenerated with 300 μl of 1 M NaCl, and additional 100 μl of 50 mM EDTA (pH8.0), when selectin was used. As a result of regeneration of a sensor tip surface, a remarkable change in a baseline was not observed.
(§6) An affinity kinetic parameter was determined by BIAevaluation 3.0 software [manufactured by Pharmacia Biosensor] using a single site binding model. […] In FIG. 6 and Table 3, SLC denotes secondary lymphoid tissue chemokin, IP-10 denotes γ-interferon inducible protein-10, SDF-1β denotes stromal cell-derived factor-1β, CS E denotes chondroitin sulfate E, and CS A denotes chondroitin sulfate A. In addition, in Table 3, Kd value for the interaction between monomeric CD44 and chondroitin sulfate E is a value calculated from a binding amount at equilibrium, and Kd value of the interaction between CD44 and hyaluronic acid is a value calculated using CD44-Ig.

[2] = target: T1, stromal cell-derived factor-1β (Homo sapiens, UniProt P48061); test: BIAcore surface plasmon resonance, immobilized glycosaminoglycan vs SDF-1β; assay type: binding
T1 construct: purchased Pepro Tech
Description: as §1, §2, §3, §4, §5, §6

monomeric L-selectin = target: T2, monomeric L-selectin (Homo sapiens, UniProt P14151); test: BIAcore surface plasmon resonance, immobilized glycosaminoglycan vs monomeric L-selectin; assay type: binding; conditions: monomeric L-selectin
T2 construct: purchased Genzyme-Techne
T2 sequence (P14151 39-332 limits assumed): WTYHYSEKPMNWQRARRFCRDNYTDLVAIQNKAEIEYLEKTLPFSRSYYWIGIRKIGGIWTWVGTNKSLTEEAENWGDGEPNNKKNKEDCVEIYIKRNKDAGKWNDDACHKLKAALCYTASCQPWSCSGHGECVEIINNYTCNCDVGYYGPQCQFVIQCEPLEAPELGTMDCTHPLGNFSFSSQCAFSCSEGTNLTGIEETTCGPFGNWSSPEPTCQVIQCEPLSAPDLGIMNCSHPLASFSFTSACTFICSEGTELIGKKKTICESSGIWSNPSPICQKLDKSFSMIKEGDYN
Description: as §1, §2, §3, §4, §5, §6

[3] = target: γ-interferon inducible protein-10 (Homo sapiens, UniProt P02778); test: BIAcore surface plasmon resonance, immobilized glycosaminoglycan vs IP-10; assay type: binding
Description: as §1, §2, §3, §4, §5, §6

monomeric P-selectin [4] = target: T3, monomeric P-selectin (Homo sapiens, UniProt P16109); test: BIAcore surface plasmon resonance, immobilized glycosaminoglycan vs monomeric P-selectin; assay type: binding; conditions: monomeric P-selectin
T3 construct: purchased Genzyme-Techne
T3 sequence (P16109 42-771 limits assumed): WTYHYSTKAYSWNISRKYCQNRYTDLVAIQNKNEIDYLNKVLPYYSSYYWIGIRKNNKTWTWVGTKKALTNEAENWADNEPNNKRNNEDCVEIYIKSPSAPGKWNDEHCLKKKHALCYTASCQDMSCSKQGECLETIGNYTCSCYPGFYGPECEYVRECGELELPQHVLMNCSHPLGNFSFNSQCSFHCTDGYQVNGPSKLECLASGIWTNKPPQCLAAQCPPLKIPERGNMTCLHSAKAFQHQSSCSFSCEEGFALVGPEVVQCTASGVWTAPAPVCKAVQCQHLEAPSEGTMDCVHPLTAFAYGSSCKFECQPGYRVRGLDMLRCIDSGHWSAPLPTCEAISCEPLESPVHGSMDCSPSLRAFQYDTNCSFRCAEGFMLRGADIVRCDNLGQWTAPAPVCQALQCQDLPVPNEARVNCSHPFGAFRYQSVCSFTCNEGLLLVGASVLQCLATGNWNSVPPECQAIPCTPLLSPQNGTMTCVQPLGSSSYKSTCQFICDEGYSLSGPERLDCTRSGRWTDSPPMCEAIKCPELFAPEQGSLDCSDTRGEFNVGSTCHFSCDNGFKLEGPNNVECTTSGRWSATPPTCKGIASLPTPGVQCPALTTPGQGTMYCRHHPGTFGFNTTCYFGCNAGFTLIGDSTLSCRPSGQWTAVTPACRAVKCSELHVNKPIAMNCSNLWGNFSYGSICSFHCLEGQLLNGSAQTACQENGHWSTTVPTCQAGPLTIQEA
Description: as §1, §2, §3, §4, §5, §6

P-selectin-Ig = test: Binding inhibition assay (ELISA), biotinylated versican to P-selectin-Ig, various concentrations; conditions: dose-dependent, FIG. 2 panel B
Description: (§7) Inhibition assay of binding between versican and each of L-selectin, P-selectin and CD44 was performed as follows. First, each well on a 96 well flat bottom microtiter plate (Coster EIA/RIA plate No. 3690) was coated with L-selectin-Ig (3 μg/ml), P-selectin-Ig (4 μg/ml) or CD44-Ig (0.25 μg/ml) by a conventional procedure. […] The plate was incubated at room temperature for 2 hours. Thereafter, the plate was washed with the buffer A, and enzyme-linked immunosorbent assay was performed in the same manner as described in Kawashima, H. et al. [J. Biol. Chem., 275, 35448-35456 (2000)]. Binding was determined by measuring absorbance at 620 nm using alkaline phosphatase-conjugated streptavidin and Blue Phos™ substrate.

monomeric CD44 = target: T4, monomeric CD44 (Homo sapiens, UniProt P16070); test: BIAcore surface plasmon resonance, immobilized glycosaminoglycan vs monomeric CD44; assay type: binding; conditions: CD44 monomeric; GAG immobilized; 25° C.
T4 construct: codons of amino acids positions 172 to 178 of human CD44; Myc-His (from vector pcDNA 3.1/Myc-His(+) B) (C); made in house; host or cells: 293T cells, secreted into conditioned medium and purified on anti-CD44 BRIC 235 Sepharose
Description: Human-derived CD44 cDNA was prepared by PCR using a sense primer (SEQ ID NO: 1):
Thereafter, the conditioned medium was subjected to immunoaffinity chromatography with anti-CD44 monoclonal antibody BRIC 235-coupled CNBr-activated Sepharose 4B, to obtain monomeric CD44. The resulting soluble CD44 was subjected to SDS-PAGE and silver staining. As a result, the purity of the resulting soluble CD44 was more than 95%.
as §1, §2, §3, §4, §5, §6

CD44-Ig [5] = test: ELISA, biotinylated versican binding to CD44-Ig in presence of glycosaminoglycan; design: species or system human; conditions: 100 μg/ml glycosaminoglycan; FIG. 5
Description: A well of a 96 well flat bottom microtiter plate was coated with BSA (5 μg/ml), anti-versican monoclonal antibody 2B1 (5 μg/ml), CD44-Ig (7 μg/ml), L-selectin-Ig (3 μg/ml), P-selectin-Ig (3 μg/ml) or chemokine (1 μg/ml), and then blocked with a phosphate buffered physiological saline containing 3% by weight of BSA. As the above chemokine, secondary lymphoid tissue chemokine, γ-interferon inducible protein-10, platelet factor 4, stromal cell-derived factor-1β [manufactured by Pepro Tech] and stromal cell-derived factor-1α [manufactured by Pepro Tech] were used.
Thereafter, the plate was washed with the buffer A, and enzyme-linked immunosorbent assay was performed in the same manner as that of the previous report [Kawashima, H. et al., J. Biol. Chem., 275, 35448-35456 (2000)]. Binding was determined by measuring absorbance at 620 nm using alkaline phosphatase-conjugated streptavidin and Blue Phos™ substrate. In FIG. 5, expression of an abscissa axis is the same as that of FIG. 4.

L-selectin-Ig = target: T5, L-selectin-Ig (Homo sapiens, UniProt P14151); test: Binding inhibition assay (ELISA), biotinylated versican to L-selectin-Ig, various concentrations; conditions: dose-dependent, FIG. 2 panel A
T5 construct: purchased R & D Systems Inc
Description: as §7

CD44-Ig [6] = test: BIAcore surface plasmon resonance, hyaluronic acid vs CD44-Ig; design: species or system human; conditions: bivalent analyte binding model
Description: Then, using the resulting CD44, human CD44-immunoglobulin (Ig) was prepared according to the method described in Toyama-Sorimachi, N. [J. Biol. Chem., 270, 7437-7444, (1995); all teachings of which are hereby incorporated by reference].
as §1, §2
First, about 1.8 to 2.0 kiloresonance unit (1 kiloresonance unit=1 ng/mm^2) of streptavidin were covalently immobilized onto B1 sensor chip via a primary amine group using an amine coupling kit [manufactured by Amercham-Bioscience] according to the instruction provided by the manufacturer. The remaining activated groups were blocked with 150 μl of 1M ethanolamine-HCl (pH8.5). […]
Binding assay was performed by injecting continuously each of various concentrations of secondary lymphoid tissue chemokine, γ-interferon inducible protein-10, stromal cell-derived factor-1β, monomeric L-selectin [manufactured by Genzyme-Techne], monomeric P-selectin [manufactured by Genzyme-Techne] and monomeric CD44, to a glycosaminoglycan-coupled sensor tip at a flow rate of 30 μl/min for 0 to 90 seconds, and then injecting a running buffer thereto. A response in resonance unit was recorded as a function of a time. […]
In FIG. 6 and Table 3, SLC denotes secondary lymphoid tissue chemokin, IP-10 denotes γ-interferon inducible protein-10, SDF-1β denotes stromal cell-derived factor-1β, CS E denotes chondroitin sulfate E, and CS A denotes chondroitin sulfate A. In addition, in Table 3, Kd value for the interaction between monomeric CD44 and chondroitin sulfate E is a value calculated from a binding amount at equilibrium, and Kd value of the interaction between CD44 and hyaluronic acid is a value calculated using CD44-Ig.

monomeric P-selectin [7] = target: T3, monomeric P-selectin; conditions: cited from earlier work

T4 sequence (P16070 21-178 limits assumed): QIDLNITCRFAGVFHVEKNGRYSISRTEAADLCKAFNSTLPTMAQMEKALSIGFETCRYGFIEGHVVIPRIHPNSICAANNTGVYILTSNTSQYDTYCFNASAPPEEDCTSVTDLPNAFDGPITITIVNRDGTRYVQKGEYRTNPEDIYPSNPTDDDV
Chain of CD44-Ig (P16070 21-178 limits assumed): as above
T5 sequence (P14151 with tags, fused parts or gaps limits assumed): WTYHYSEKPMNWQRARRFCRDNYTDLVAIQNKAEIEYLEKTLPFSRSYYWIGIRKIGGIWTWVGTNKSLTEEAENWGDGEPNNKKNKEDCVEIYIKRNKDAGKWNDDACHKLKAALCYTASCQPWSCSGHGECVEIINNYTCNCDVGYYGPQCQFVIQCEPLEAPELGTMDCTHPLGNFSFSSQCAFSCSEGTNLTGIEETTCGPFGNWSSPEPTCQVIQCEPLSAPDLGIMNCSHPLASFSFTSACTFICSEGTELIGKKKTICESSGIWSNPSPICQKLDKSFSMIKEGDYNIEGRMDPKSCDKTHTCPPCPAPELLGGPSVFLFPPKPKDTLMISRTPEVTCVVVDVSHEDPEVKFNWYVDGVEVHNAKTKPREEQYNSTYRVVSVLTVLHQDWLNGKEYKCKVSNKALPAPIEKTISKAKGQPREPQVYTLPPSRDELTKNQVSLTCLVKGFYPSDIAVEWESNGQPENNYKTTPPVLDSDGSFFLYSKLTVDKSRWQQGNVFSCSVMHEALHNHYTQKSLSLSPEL
Chain of γ-interferon inducible protein-10 (P02778 22-98): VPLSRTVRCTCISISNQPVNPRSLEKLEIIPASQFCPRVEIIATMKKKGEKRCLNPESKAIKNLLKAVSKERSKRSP
T1 sequence (P48061 22-93): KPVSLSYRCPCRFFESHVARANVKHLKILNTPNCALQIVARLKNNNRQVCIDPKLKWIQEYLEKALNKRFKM

With chondroitin the “interaction with immobilized glycosaminoglycan (sensorgram)” value (from here on “interaction”) [1] was “did not interact”, the “interaction” value [2] was “did not interact” and the “interaction” value (monomeric L-selectin) was “did not interact”. The “interaction” value [3] was “did not interact”, the “interaction” value (monomeric P-selectin [4]) was “did not interact” and the “inhibition of binding between biotinylated versican and P-selectin-Ig” value (P-selectin-Ig) was “not inhibited”. It also gave a Kd (monomeric CD44) of 129 µM, a koff (monomeric CD44) of 0.0649 s⁻¹ and a kon (monomeric CD44) of 503 M⁻¹ s⁻¹. For the same molecule, the “inhibition of binding between biotinylated versican and CD44-Ig” value (CD44-Ig [5]) was “inhibited” and the “inhibition of binding between biotinylated versican and L-selectin-Ig” value (L-selectin-Ig) was “not inhibited”.

With dermatan sulfate [DS] the “inhibition of binding between biotinylated versican and P-selectin-Ig” value (P-selectin-Ig) was “not inhibited” and the “inhibition of binding between biotinylated versican and L-selectin-Ig” value (L-selectin-Ig) was “not inhibited”.

Work on hyaluronic acid [HA] yielded a koff (CD44-Ig [6]; CD44-Ig) of 0.0543 s⁻¹, a kon (CD44-Ig [6]; CD44-Ig) of 26100 M⁻¹ s⁻¹ and a Kd (CD44-Ig [6]; determined using CD44-Ig) of 2080 nM.

B1: P-selectin glycoprotein ligand-1: known ligand of P-selectin (protein, UniProt Q14242 42-412, looked up)
P-selectin glycoprotein …: QATEYEYLDYDFLPETEPPEMLRNSTDTTPLTGPGTPESTTVEPAARRSTGLDAGGAVTELTTELANMGNLSTDSAAMEIQTTQPAATEAQTTQPVPTEAQTTPLAATEAQTTRLTATEAQTTPLAATEAQTTPPAATEAQTTQPTGLEAQTTAPAAMEAQTTAPAAMEAQTTPPAAMEAQTTQTTAMEAQTTAPEATEAQTTQPTATEAQTTPLAAMEALSTEPSATEALSMEPTTKRGLFIPFSVSSVTHKGIPMAASNLSVNYPVGAPDHISVKQCLLAILILALVATIFFVCTVVLAVRLSRKGHMYPVRNYSPTEMVCISSLLPDGGEGPSATANGGLSKAKSPGLTPEPREDREGDDLTLHSFLP
For B1, the Kd (monomeric P-selectin [7]) is given as roughly 300 nM, the association rate (monomeric P-selectin [7]) is given as 4.4e+06 M⁻¹ s⁻¹ and the dissociation rate (monomeric P-selectin [7]) is given as 1.4 s⁻¹.
